Test results reported in patent US8785399B2, “Antibacterial peptides” (Spiderbiotech S.R.A., priority 2008, dated 2014).
Values after ≈ are worked out from the molar mass of the structure shown. Positions of bridges follow the written chain, without caps; N, C: chain ends. Non-standard residues stand in square brackets, D forms with d. Residues, ends and D or L forms follow the SMILES beside them. Chains are numbered I, II in the order given. Aoc = NCCCCCCCC(=O)O; Ava = NCCCCC(=O)O; βAla = NCCC(=O)O

How the values were obtained:
[1] = test system: Pseudomonas aeruginosa ATCC 27853; assay: MIC by broth microdilution, P. aeruginosa reference strain; format: cell-based; details: ATCC 27853
Procedure: (§1) Determination of MIC. MICs were determined in MHB by the broth microdilution methodology, according to CLSI procedure (formerly NCCLS, Ref. 11) by using final bacterial inocula of 1-5×10^5 CFU/mL. Assays were performed in sterile 96-well microtiter plates with round bottom wells (Corning Costar). Plates were incubated at 37° C. and read after 20-24 h. MIC was defined as the lowest drug concentration causing complete suppression of visible bacterial growth. All compounds were dissolved in (5% v/v DMSO).
(§2) These peptides were synthesized individually, in order to assay the activity of each sequence.

[2] = test system: Staphylococcus aureus ATCC 25923
Procedure: as §1, §2

[3] = test system: Klebsiella pneumoniae ATCC 10031; assay: MIC by broth microdilution, K. pneumoniae reference strain; format: cell-based; details: ATCC 10031
Procedure: as §1, §2

E. coli ATCC 25922 = assay: MIC by broth microdilution, E. coli reference strain; format: cell-based, Escherichia coli; details: ATCC 25922
Procedure: as §1
All natural aminoacids have been divided into three groups based on their chemical-physical properties. A total amount of 27 minilibraries, each one containing six peptide in equimolar amounts, were obtained and assayed against E. coli ATCC 25922 as reference strain. MIC (Minimum Inhibitory Concentration) is defined as the lowest concentration inhibiting 100% of visible growth.

Molecule	MIC (ug/mL) P. aeruginosa [1] [µg/mL]	MIC (ug/mL) S. aureus [2] [µg/mL]	MIC (ug/mL) K. pneumoniae [3] [µg/mL]	MIC (ug/mL) E. coli (E. coli ATCC 25922) [µg/mL]
H-GQWKIRVRLSA-OH [ID14, H-G-Q-W-KIRVRLSA-OH]	64	>512	>512	64
H-IKKIRVRLSA-OH [ID3, H-I-KKIRVRLSA-OH]	256	512	512	256
H-QVKIRVRLSA-OH [ID11, H-Q-V-KIRVRLSA-OH]	256	>512	>512	256
H-WKKIRVRLSA-OH [ID6, H-W-KKIRVRLSA-OH]	128	512	256	64 to 128
H-QIKIRVRLSA-OH [ID9, H-Q-I-KIRVRLSA-OH]	>512	>512	512	512
CC[C@H](C)[C@H](NC(=O)[C@H](CCCCN)NC(=O)[C@H](Cc1c[nH]c2ccccc12)NC(=O)[C@H](CCC(N)=O)NC(=O)CCCCN)C(=O)N[C@@H](CCCNC(=N)N)C(=O)N[C@H](C(=O)N[C@@H](CCCNC(=N)N)C(=O)N[C@@H](CC(C)C)C(=O)N[C@@H](CO)C(=O)N[C@@H](C)C(=O)NCCCC[C@H](NC(=O)[C@H](C)NC(=O)[C@H](CO)NC(=O)[C@H](CC(C)C)NC(=O)[C@H](CCCNC(=N)N)NC(=O)[C@@H](NC(=O)[C@H](CCCNC(=N)N)NC(=O)[C@@H](NC(=O)[C@H](CCCCN)NC(=O)[C@H](Cc1c[nH]c2ccccc12)NC(=O)[C@H](CCC(N)=O)NC(=O)CCCCN)[C@@H](C)CC)C(C)C)C(=O)NCCC(N)=O)C(C)C [ID22, (H-5-Ava-Q-W-KIRVRLSA)2-Lys-β-Ala-NH2] (I: H-[Ava]QWKIRVRLSAK[βAla]-NH2 / II: H-[Ava]QWKIRVRLSA; amide I:12-II:C)	>64		>64	16 (≈ 5.53 µM)
H-FKKIRVRLSA-OH [ID2, H-F-KKIRVRLSA-OH]	256	512	512	256
H-QFKIRVRLSA-OH [ID8, H-Q-F-KIRVRLSA-OH]	128	>512	>512	128
CC[C@H](C)[C@H](NC(=O)[C@H](CCCCN)NC(=O)[C@H](CCCCN)NC(=O)[C@H](Cc1c[nH]c2ccccc12)NC(=O)CCCCN)C(=O)N[C@@H](CCCNC(=N)N)C(=O)N[C@H](C(=O)N[C@@H](CCCNC(=N)N)C(=O)N[C@@H](CC(C)C)C(=O)N[C@@H](CO)C(=O)N[C@@H](C)C(=O)NCCCC[C@H](NC(=O)[C@H](C)NC(=O)[C@H](CO)NC(=O)[C@H](CC(C)C)NC(=O)[C@H](CCCNC(=N)N)NC(=O)[C@@H](NC(=O)[C@H](CCCNC(=N)N)NC(=O)[C@@H](NC(=O)[C@H](CCCCN)NC(=O)[C@H](CCCCN)NC(=O)[C@H](Cc1c[nH]c2ccccc12)NC(=O)CCCCN)[C@@H](C)CC)C(C)C)C(=O)NCCC(N)=O)C(C)C [ID21, (H-5-Ava-W-KKIRVRLSA)2-Lys-β-Ala-NH2] (I: H-[Ava]WKKIRVRLSAK[βAla]-NH2 / II: H-[Ava]WKKIRVRLSA; amide I:12-II:C)	64 (≈ 22.1 µM)		64 (≈ 22.1 µM)	8 to 16
CC[C@H](C)[C@H](NC(=O)[C@H](CCCCN)NC(=O)[C@H](CCCCN)NC(=O)[C@H](CCC(N)=O)NC(=O)CCCCCCCN)C(=O)N[C@@H](CCCNC(=N)N)C(=O)N[C@H](C(=O)N[C@@H](CCCNC(=N)N)C(=O)N[C@@H](CC(C)C)C(=O)N[C@@H](CO)C(=O)N[C@@H](C)C(=O)NCCCC[C@H](NC(=O)[C@H](C)NC(=O)[C@H](CO)NC(=O)[C@H](CC(C)C)NC(=O)[C@H](CCCNC(=N)N)NC(=O)[C@@H](NC(=O)[C@H](CCCNC(=N)N)NC(=O)[C@@H](NC(=O)[C@H](CCCCN)NC(=O)[C@H](CCCCN)NC(=O)[C@H](CCC(N)=O)NC(=O)CCCCCCCN)[C@@H](C)CC)C(C)C)C(=O)NCCC(N)=O)C(C)C [ID23, (H-8-Aoa-OKKIRVRLSA)2-Lys-β-Ala-NH2] (I: H-[Aoc]QKKIRVRLSAK[βAla]-NH2 / II: H-[Aoc]QKKIRVRLSA; amide I:12-II:C)	>64		>64	32 (≈ 11.2 µM)
H-QLKIRVRLSA-OH [ID10, H-Q-L-KIRVRLSA-OH]	128	>512	>512	128
CC[C@H](C)[C@H](NC(=O)[C@H](CCCCN)NC(=O)[C@H](CCCCN)NC(=O)[C@H](CCC(N)=O)NC(=O)CN)C(=O)N[C@@H](CCCNC(=N)N)C(=O)N[C@H](C(=O)N[C@@H](CCCNC(=N)N)C(=O)N[C@@H](CC(C)C)C(=O)N[C@@H](CO)C(=O)N[C@@H](C)C(=O)NCCCC[C@H](NC(=O)[C@H](C)NC(=O)[C@H](CO)NC(=O)[C@H](CC(C)C)NC(=O)[C@H](CCCNC(=N)N)NC(=O)[C@@H](NC(=O)[C@H](CCCNC(=N)N)NC(=O)[C@@H](NC(=O)[C@H](CCCCN)NC(=O)[C@H](CCCCN)NC(=O)[C@H](CCC(N)=O)NC(=O)CN)[C@@H](C)CC)C(C)C)C(=O)NCCC(N)=O)C(C)C [ID20, (H-G-QKKIRVRLSA)2-Lys-β-Ala-NH2] (I: H-GQKKIRVRLSAK[βAla]-NH2 / II: H-GQKKIRVRLSA; amide I:12-II:C)	>64		>64	16 to 32
H-LKKIRVRLSA-OH [ID4, H-L-KKIRVRLSA-OH]	256	>512	512	256
CC[C@H](C)[C@H](NC(=O)[C@H](CCCCN)NC(=O)[C@H](Cc1c[nH]c2ccccc12)NC(=O)[C@H](CCC(N)=O)NC(=O)CCCCCCCN)C(=O)N[C@@H](CCCNC(=N)N)C(=O)N[C@H](C(=O)N[C@@H](CCCNC(=N)N)C(=O)N[C@@H](CC(C)C)C(=O)N[C@@H](CO)C(=O)N[C@@H](C)C(N)=O)C(C)C [ID16, H-8-Aoa-Q-W-KIRVRLSA-NH2] (H-[Aoc]QWKIRVRLSA-NH2)	>64		>64	32 (≈ 22.9 µM)
CC[C@H](C)[C@H](NC(=O)[C@H](CCCCN)NC(=O)[C@H](Cc1c[nH]c2ccccc12)NC(=O)[C@H](CCC(N)=O)NC(=O)CN)C(=O)N[C@@H](CCCNC(=N)N)C(=O)N[C@H](C(=O)N[C@@H](CCCNC(=N)N)C(=O)N[C@@H](CC(C)C)C(=O)N[C@@H](CO)C(=O)N[C@@H](C)C(=O)NCCCC[C@H](NC(=O)[C@H](C)NC(=O)[C@H](CO)NC(=O)[C@H](CC(C)C)NC(=O)[C@H](CCCNC(=N)N)NC(=O)[C@@H](NC(=O)[C@H](CCCNC(=N)N)NC(=O)[C@@H](NC(=O)[C@H](CCCCN)NC(=O)[C@H](Cc1c[nH]c2ccccc12)NC(=O)[C@H](CCC(N)=O)NC(=O)CN)[C@@H](C)CC)C(C)C)C(=O)NCCC(N)=O)C(C)C [ID19, (H-G-Q-W-KIRVRLSA)2-Lys-β-Ala-NH2] (I: H-GQWKIRVRLSAK[βAla]-NH2 / II: H-GQWKIRVRLSA; amide I:12-II:C)	>64		>64	16 (≈ 5.7 µM)
H-QKKIRVRLSA-OH [ID1, H-QKKIRVRLSA-OH, reference compound]	>512		>512	
CC[C@H](C)[C@H](NC(=O)[C@H](CCCCN)NC(=O)[C@H](CCCCN)NC(=O)[C@H](CCC(N)=O)NC(=O)CCCCCCCN)C(=O)N[C@@H](CCCNC(=N)N)C(=O)N[C@H](C(=O)N[C@@H](CCCNC(=N)N)C(=O)N[C@@H](CC(C)C)C(=O)N[C@@H](CO)C(=O)N[C@@H](C)C(N)=O)C(C)C [ID17, H-8-Aoa-QKKIRVRLSA-NH2] (H-[Aoc]QKKIRVRLSA-NH2)	>64		>64	64 (≈ 47.8 µM)
CC[C@H](C)[C@H](NC(=O)[C@H](CCCCN)NC(=O)[C@H](CCCCN)NC(=O)[C@H](Cc1c[nH]c2ccccc12)NC(=O)CCCCCCCN)C(=O)N[C@@H](CCCNC(=N)N)C(=O)N[C@H](C(=O)N[C@@H](CCCNC(=N)N)C(=O)N[C@@H](CC(C)C)C(=O)N[C@@H](CO)C(=O)N[C@@H](C)C(N)=O)C(C)C [ID15, H-8-Aoa-W-KKIRVRLSA-NH2] (H-[Aoc]WKKIRVRLSA-NH2)	>64		>64	32 (≈ 22.9 µM)
